Assay results reported in US6369101B1, “Therapeutic method to treat herpes virus infection” (Regents of the University of Minnesota, priority 1999, dated 2002).
Values after ≈ are worked out from the molar mass of the structure shown. Counter-ions that a name gives are not always drawn. Like-named read-outs stand apart in the source and are kept apart here.

Assays:
[1] = system: Human Cytomegalovirus; test: CPE inhibition in stationary cells (visual), HCMV in HFF cells; type: cell-based; conditions: test compounds in DMSO
[2] = system: Varicella-Zoster Virus; test: CPE inhibition in stationary cells (visual), VZV in HFF cells; type: cell-based; conditions: test compounds in DMSO
[3] = system: Epstein-Barr Virus; test: VCA expression in EBV-infected Daudi cells; conditions: Epstein-Barr Virus, Daudi cells, VCA; test compounds in DMSO
Excerpt: Raji is a Burkitt's lymphoma cell line containing 60 EBV genome/cell, and was the primary cell used for screening antiviral activity against EBV early antigen (EA) expression. […] It spontaneously expresses EBV EA in 0.25-0.5% of the cells. It was used in follow-up studies to confirm activity. These cell lines respond to superinfection by EBV by expressing EA-diffuse component EA (D), EA restricted component EA (R), and viral capsid antigen (VCA). […] The cultures were fed twice weekly and the cell concentration was adjusted to 3×10^5/ml. The cells were kept at 37° C. in humidified atmosphere with 5% CO2.
Cells were infected with the P3HR-1 strain of HBV and the test compound was added after adsorption (45 minutes at 37° C.) and washing of the cell cultures. The cultures were incubated for two days in complete medium to allow viral gene expression. Following the 48 hours of incubation, the numbers of cells of each sample was counted and smears were made. Monoclonal antibodies to the different EA components and VCA were then added to the cells and then incubated and washed. This is followed by a fluorescein conjugated rabbit anti-mouse IgG antibody, and the number of fluorescence cells in the smear were counted. The total number of cells in the cultures positive for EA or VCA were then calculated and compared.

[4] = system: HSV-1 strain E-377; test: CPE inhibition assay, HSV-1 E377 in human foreskin fibroblast cells; as to Qualitative CPE at 2.0 ml dose HSV-1 E377: key: +++ = Complete cytopathic effect; ++ = Moderate cytopathic effect; + = Minimum cytopathic effect; − = No cytopathic effect; type: cell-based, herpes simplex virus type 1; conditions: for Qualitative CPE at 2.0 ml dose HSV-1 E377: solution conc. per compound (ng/ml) (Acyclovir 250); for EC50: Human alphaherpesvirus 1, HFF, read-out: EC50 HSV-1 E377
Protocol: (§1) Stock solutions of the compounds used for the testing of antiviral activity against HSV-1 and HSV-2 were prepared in distilled water, filtered through 0.2 μm filter (Acrodisco®, Gelman Sciences, USA) and stored at room temperature until used.
(§2) Human laryngeal epithelial carcinoma cells (HEp-2, ATCC, Rockville, Md.) were used for testing of antiviral compounds by cytopathic effect (CPE) inhibition and plaque reduction assay. Primary human foreskin fibroblast cells (HFF) obtained from Dr. E. R. Kern (Department of Pediatrics, University of Alabama Medical School, 309 Bevill Biomedical Research Building, 845 19th Street South, Birmingham, Ala., 35294-2170), were used for cytopathic effect (CPE) inhibition assay. HEp-2, African green monkey kidney cells (Vero, ATCC), HFF and primary rabbit kidney cells were used to determine the cytotoxic effect of compounds of formula I. These cells were propagated in Dulbeco's modified Eagle's medium (DMEM) (Sigma, USA) supplemented with 10% inactivated fetal calf serum (FCS), 25 mM HEPES, 0.2% sodium bicarbonate and 1% penicillin/-streptomycin at 37° C. in the presence of 5% CO2.
(§3) The antiviral activity of the test compounds was determined against HSV-1 strain F, HSV-2 strain G (ATCC), HSV-1 strain E-377 and HSV-2 strain MS (Dr. E. R. Kern, see above), CMV strain AD 169 (NIH), HCMV (NIH), MCMV (NIH), and VZV strain Ellen (NIH). Highly infective virus stocks of HSV-1 and HSV-2 were prepared by infecting a confluent monolayer of HEp-2 (ATCC) or HFF in 150 cm^2 plastic tissue culture flasks (Falcon, USA) at a multiplicity of infection of 0.5 in DMEM supplemented with 10% inactivated fetal calf serum and 1% penicillin/streptomycin at 37° C. in the presence of 5% CO2. The infected cells were disrupted through three freeze/thaw cycles, and viruses were clarified from large cell debris by low speed centrifugation at 3000 rpm for 10 minutes. The virus suspension was separated, aliquoted and stored at −80° C. until assayed or used for animal infection. The stock HSV-1 (E377) and HSV-2 (MS strain) contained 3.5×10^8 and 1.1×10^7 pfu/ml respectively.
(§4) Low passage HFF cells were seeded into 96-well tissue culture plates 24 hours prior to use at a cell concentration of 2.5×10^4 cells per ml in 0.2 ml of DMEM supplemented with 10% fetal calf serum. After 24 hours of incubation at 37° C. in the presence of 5% CO2, medium was removed and the test compounds were diluted two-fold in DMEM in the 96-well tissue culture plate containing monolayer. […] For both HSV-1 and HSV-2 assays, the virus concentration utilized was 1000 pfu/ml and for HCMV, MCMV, and VZV assay 2500 pfu/ml were used. The plates were then incubated at 37° C. in the presence of 5% CO2 for two to three days for HSV-1 and HSV-2, 10 days for VZV and 14 days for HCMV and MCMV. The virus induced cytopathic effect (CPE) was monitored microscopically every day. CPE of HSV-1 was recognized by cell rounding and clumping, while HSV-2 formed large syncytia along with rounding and clumping of cells. […] EC50s were estimated from graphical plots of percent CPE against the concentration of the test compounds. The EC50s for each compound are the mean of EC50s for three or more independent experiments. After three days of incubation period, media was aspirated and the cells stained with a 0.1% crystal violet solution for 30 minutes. The stain was then removed and the plates were rinsed with tap water, air dried and retained.

[5] = system: HSV-2 strain MS; test: CPE inhibition assay, HSV-2 MS in human foreskin fibroblast cells; as to Qualitative CPE at 2.0 ml dose HSV-2 MS: key: +++ = Complete cytopathic effect; ++ = Moderate cytopathic effect; + = Minimum cytopathic effect; − = No cytopathic effect; type: cell-based, herpes simplex virus type 2; conditions: for Qualitative CPE at 2.0 ml dose HSV-2 MS: HFF cells, solution conc. per compound (ng/ml) (Acyclovir 250); for EC50: Human alphaherpesvirus 2, HFF, read-out: EC50 HSV-2 MS
Protocol: as §1, §2, §3, §4

[6] = system: Primary human foreskin fibroblast cells (HFF); test: Cell proliferation assay (cytotoxicity) in HFF cells; type: cell-based; conditions: for CC50: Human foreskin fibroblast cells, reduces growth of uninfected cells by 50%; for Qualitative Cytotoxic Effect at 2.0 ml dose: HFF cells, solution conc. per compound (ng/ml) (Acyclovir 250)
Protocol: (§5) Human laryngeal epithelial carcinoma cells (HEp-2, ATCC, Rockville, Md.) were used for testing of antiviral compounds by cytopathic effect (CPE) inhibition and plaque reduction assay. […] HEp-2, African green monkey kidney cells (Vero, ATCC), HFF and primary rabbit kidney cells were used to determine the cytotoxic effect of compounds of formula I. These cells were propagated in Dulbeco's modified Eagle's medium (DMEM) (Sigma, USA) supplemented with 10% inactivated fetal calf serum (FCS), 25 mM HEPES, 0.2% sodium bicarbonate and 1% penicillin/-streptomycin at 37° C. in the presence of 5% CO2.
(§6) HFF, Vero and HEp-2 cells were seeded in 24-well tissue culture plates at a concentration of […] in DMEM containing 10% FCS and incubated for 24 hours at 37° C. in the presence of 5% CO2. To the monolayer of these cells 0.5, 1.0, 1.5 and 2.0 ml of solution of antiviral compounds were added in the respective wells in duplicate and the cells were then incubated in a 5% CO2 incubator at 37° C. for 72 hours. The cells were observed daily for any change in morphology. […] At the end of this time, the media-drug solution was removed and the cells washed. One ml of 0.25% trypsin was added to each well and incubated until the cells start to come off of the plate. The cells-media mixture was then pipetted up and down several times to resuspend the cells and 0.2 ml of the cell suspension was added to 9.8 ml of trypan blue and cells were counted using hemocytometer. Each sample was counted three times with three replicate wells per sample.

[7] = system: HSV-1 strain F; test: CPE inhibition, HSV-1 strain F in HEp-2 cells; also: key: +++ = Complete cytopathic effect; ++ = Moderate cytopathic effect; + = Minimum cytopathic effect; − = No cytopathic effect; type: cell-based, herpes simplex virus type 1; conditions: conc. per compound (ng/ml)
Excerpt: as §2, §3, §4

[8] = system: HSV-2 strain G; test: CPE inhibition, HSV-2 strain G in HEp-2 cells; also: key: +++ = Complete cytopathic effect; ++ = Moderate cytopathic effect; + = Minimum cytopathic effect; − = No cytopathic effect; type: cell-based, herpes simplex virus type 2; conditions: conc. per compound (ng/ml)
Excerpt: as §2, §3, §4

[9] = system: Human laryngeal epithelial carcinoma cells (HEp-2); test: Cytotoxicity in HEp-2 cells; type: cell-based; conditions: HEp-2 cells; conc. per compound (ng/ml)
Protocol: as §5, §6

[10] = Cell proliferation assay (cytotoxicity) in HFF cells; type: cell-based, human; conditions: Human foreskin fibroblast cells, reduces growth of uninfected cells by 50%
Protocol: as §5, §6

Betulin glycerol oxalate
EC50 [1]: >0.1 µg/mL | EC50 [2]: >0.02 µg/mL | EC50 [3]: 0.0072 µg/mL

CC1(C)CCC23CC[C@@]4(C)C(CCC5[C@@]6(C)CCC(OP(=O)(O)O)C(C)(C)C6CC[C@]54C)C2C1OC3 (some centres unmarked) [Allobetulin 3-phosphate, Allobetulin Phosphate]
EC50 HSV-1 E377 ([4]; CPE inhibition in HFF cells): >0.25 µg/mL | anti HSV-1 activity (in words) ([4]; HFF cells, HSV-1 (E377)): significant activity | EC50 HSV-2 MS ([5]; CPE inhibition in HFF cells): 0.25 µg/mL | CC50 [6]: >0.125 µg/mL | Cytopathic Effect (CPE) Inhibition HSV-1 Strain F [7]: +++ | Cytopathic Effect (CPE) Inhibition HSV-2 Strain G [8]: ++ | Cell Cytotoxicity [9]: −

Allobetulin ethanolamine chlorohydrate
EC50 HSV-1 E377 ([4]; CPE inhibition in HFF cells): 0.125 µg/mL | EC50 HSV-2 MS ([5]; CPE inhibition in HFF cells): 0.125 µg/mL | CC50 [6]: 0.125 µg/mL

CC1(C)CCC23CCC4(C)C(CCC5C6(C)CCC(OC(=O)CO)C(C)(C)C6CCC54C)C2C1OC3 (centres unmarked) [Allobetulin 3-glycolate, Allobetulin, 3-Glycolate]
EC50 HSV-1 E377 ([4]; CPE inhibition in HFF cells): >0.25 µg/mL | EC50 HSV-2 MS ([5]; CPE inhibition in HFF cells): 0.125 µg/mL (≈ 0.25 µM) | CC50 [6]: >0.25 µg/mL | Cytopathic Effect (CPE) Inhibition HSV-1 Strain F [7]: +++ | Cytopathic Effect (CPE) Inhibition HSV-2 Strain G [8]: ++ | Cell Cytotoxicity [9]: −

CC1(C)CCC23CCC4(C)C(CCC5C6(C)CCC(OC(=O)c7ccccc7C(=O)O)C(C)(C)C6CCC54C)C2C1OC3 (centres unmarked) [Allobetulin 3-phthalate, Allobetulin, 3-Phthalate]
EC50 HSV-1 E377 ([4]; CPE inhibition in HFF cells): >0.25 µg/mL | EC50 HSV-2 MS ([5]; CPE inhibition in HFF cells): 0.25 µg/mL (≈ 0.423 µM) | CC50 [6]: >0.25 µg/mL | Cytopathic Effect (CPE) Inhibition HSV-1 Strain F [7]: ++ | Cytopathic Effect (CPE) Inhibition HSV-2 Strain G [8]: ++ | Cell Cytotoxicity [9]: −

CC1(C)CCC23CC[C@]4(C)C(CCC5[C@@]6(C)CCC(=O)C(C)(C)C6CC[C@]54C)C2C1OC3 (some centres unmarked) [Allobetulon]
Qualitative CPE at 2.0 ml dose HSV-1 E377 ([4]; HFF cells): +++ | EC50 ([4]; CPE inhibition in HFF cells): 0.3 µg/mL (≈ 0.681 µM) | Qualitative CPE at 2.0 ml dose HSV-2 MS [5]: +++ | EC50 ([5]; CPE inhibition in HFF cells): 0.3 µg/mL (≈ 0.681 µM) | CC50 at 72 h ([10]; primary human foreskin fibroblast (HFF) cells): 0.3 µg/mL (≈ 0.681 µM) | Qualitative Cytotoxic Effect at 2.0 ml dose [6]: − | Cytopathic Effect (CPE) Inhibition HSV-1 Strain F [7]: ++ | Cytopathic Effect (CPE) Inhibition HSV-2 Strain G [8]: ++ | Cell Cytotoxicity [9]: −

Cc1ccc(S(=O)(=O)OC2CC[C@@]3(C)C(CC[C@]4(C)C3CCC3C5C6OCC5(CCC6(C)C)CC[C@]34C)C2(C)C)cc1 (some centres unmarked) (as salt: tosylate) [Example 9, Allobetulin Tosylate]
melting point: 180 to 182.6 °C (dec.)

CC1(C)CCC23CC[C@]4(C)C(CCC5[C@@]6(C)C=C(O)C(=O)C(C)(C)C6CC[C@]54C)C2C1OC3=O (some centres unmarked) [Example 13, Allobetulonlacton 1-ene-2-ol]
melting point: 238.8 to 243.6 °C (dec.)

Allobetulin ethanolamine
EC50 HSV-1 E377 ([4]; CPE inhibition in HFF cells): >0.25 µg/mL | EC50 HSV-2 MS ([5]; CPE inhibition in HFF cells): >0.25 µg/mL | CC50 [6]: 0.2 µg/mL

CC1(C)CCC23CC[C@]4(C)C(CCC5[C@@]6(C)CCC(O)C(C)(C)C6CC[C@]54C)C2C1OC3=O (some centres unmarked) [Allobetulin lactone, Allobetulin-Lactone]
EC50 [4]: > 0.125 µg/mL | EC50 [5]: 0.2 µg/mL (≈ 0.438 µM) | CC50 at 72 h [10]: > 0.125 µg/mL | Cytopathic Effect (CPE) Inhibition HSV-1 Strain F [7]: +++ | Cytopathic Effect (CPE) Inhibition HSV-2 Strain G [8]: ++ | Cell Cytotoxicity [9]: −

CC1(C)CCC23CC[C@]4(C)C(CCC5[C@@]6(C)CCC(=O)C(C)(C)C6CC[C@]54C)C2C1OC3=O (some centres unmarked) [Example 10, Allobetulon Lactone]
melting point: 333.7 to 335.9 °C (dec.)

CC1(C)CCC23CC[C@]4(C)C(CCC5[C@@]6(C)CC(Br)C(=O)C(C)(C)C6CC[C@]54C)C2C1OC3=O (some centres unmarked) [Example 12, 2-Br-Allobetulonlacton]
melting point: 338 to 342.8 °C (dec.)

CC(=O)OC1CCC2(C)C(CCC3(C)C2CCC2C4C5OC(=O)C4(CCC5(C)C)CCC23C)C1(C)C (stereo not drawn) [3β-Acetoxy-19αH-19,28lactone-oleanan, Allobetulin-3-acetyl lactone (3β-Acetoxy-19αH-19,28-lactone-oleanane)]
EC50 HSV-1 E377 ([4]; CPE inhibition in HFF cells): 0.225 µg/mL (≈ 0.451 µM) | Qualitative CPE at 2.0 ml dose HSV-1 E377 ([4]; HFF cells): +++ | EC50 HSV-2 MS ([5]; CPE inhibition in HFF cells): 0.125 µg/mL (≈ 0.251 µM) | Qualitative CPE at 2.0 ml dose HSV-2 MS [5]: ++ | Qualitative Cytotoxic Effect at 2.0 ml dose [6]: + | CC50 [6]: 0.225 µg/mL (≈ 0.451 µM) | Cytopathic Effect (CPE) Inhibition HSV-1 Strain F [7]: ++ | Cytopathic Effect (CPE) Inhibition HSV-2 Strain G [8]: ++ | Cell Cytotoxicity [9]: −

CC1(C)CCC23CCC4(C)C(CCC5C6(C)CCC(OC(=O)CCC(=O)O)C(C)(C)C6CCC54C)C2C1OC3 (centres unmarked) [Allobetulin Succinate, Allobetulin, 3-Succinate]
EC50 HSV-1 E377 ([4]; CPE inhibition in HFF cells): >0.25 µg/mL | EC50 HSV-2 MS ([5]; CPE inhibition in HFF cells): >0.25 µg/mL | CC50 [6]: >0.25 µg/mL | Cytopathic Effect (CPE) Inhibition HSV-1 Strain F [7]: ++ | Cytopathic Effect (CPE) Inhibition HSV-2 Strain G [8]: + | Cell Cytotoxicity [9]: −
